The values below come from ChEMBL document CHEMBL5576118, “Structure of Designer Antibody-like Peptides Binding to the Human C5a with Potential to Modulate the C5a Receptor Signaling” (J Med Chem, 2024).

Active and inactive are the calls of the source. The rule behind the calls is not given here.

Series [1] concerns the target T1, Complement C5 (Homo sapiens, UniProt P01031). Briefly: Binding affinity to C5a (unknown origin) at 2 mM by 1H NMR analysis. As to conditions: filed as modulator.
Series [2] deals with T1, Complement C5. Briefly: Binding affinity to C5a (unknown origin) at 10 uM by FT-IR analysis. As to conditions: filed as modulator.
Series [3] has as its target T1, Complement C5. Briefly: Binding affinity to C5a (unknown origin) assessed as change in near-UV CD signature at 50 uM. As to conditions: filed as modulator.
Series [4] has as its target T2, C5a anaphylatoxin chemotactic receptor 1 (Homo sapiens, UniProt P21730).
T2 sequence (P21730 whole entry): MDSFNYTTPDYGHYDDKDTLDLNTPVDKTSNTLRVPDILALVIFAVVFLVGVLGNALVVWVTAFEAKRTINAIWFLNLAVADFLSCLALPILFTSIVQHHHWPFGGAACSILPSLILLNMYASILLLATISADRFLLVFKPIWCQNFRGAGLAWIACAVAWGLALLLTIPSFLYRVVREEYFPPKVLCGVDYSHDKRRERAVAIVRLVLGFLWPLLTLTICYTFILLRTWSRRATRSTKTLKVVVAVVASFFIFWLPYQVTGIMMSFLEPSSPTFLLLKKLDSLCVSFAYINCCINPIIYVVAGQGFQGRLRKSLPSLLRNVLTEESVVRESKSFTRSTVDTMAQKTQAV
Kind of series: Binding affinity to N-terminal peptide SR3 of C5aR1 (1 to 28 residues)(unknown origin) assessed as dissociation constant by fluorescence based analysis.

Another series deals with HeLa. Kind of series: Cytotoxicity against human HeLa cells assessed as cellular viability at 0.19 to 100 uM incubated for 18 hrs by MTT assay. As to conditions: dose 0.19-100 µM. It counts as toxicity, cell-based. In general terms: Tetrazolium dyes change colour on reduction, which living cells bring about.
A further series has as its system HEK293. Kind of series: Cytotoxicity against human HEK293 cells assessed as cellular viability at 0.19 to 100 uM incubated for 18 hrs by MTT assay. It counts as toxicity, cell-based. As to conditions: hek293, 18 h, dose 0.19-100 µM.
The target in series [5] is T1, Complement C5. Kind of series: Binding affinity to C5a (unknown origin) assessed as dissociation constant incubated for 1 hr by CD analysis.
Series [6] has as its target T2, C5a anaphylatoxin chemotactic receptor 1. Kind of series: Binding affinity to N-terminal peptide SR5 of C5aR1 (1 to 28 residues)(unknown origin) assessed as dissociation constant by fluorescence based analysis.
Series [7] deals with T3, C5a anaphylatoxin chemotactic receptor 2 (Homo sapiens, UniProt Q9P296). Kind of series: Binding affinity to N-terminal peptide SR13 of C5aR2 (14 to 32 residues)(unknown origin) assessed as dissociation constant by fluorescence based analysis.
In series [8] the target is T1, Complement C5. Briefly: Binding affinity to C5a (unknown origin) assessed as dissociation constant by fluorescence quenching analysis.
Another series deals with Erythrocyte. Kind of series: Hemolytic activity against human erythrocytes at 0.19 to 100 uM incubated for 1 hr by absorbance based assay. It counts as toxicity, cell-based. As to conditions: dose 0.19-100 µM.
Series [9] has as its target T3, C5a anaphylatoxin chemotactic receptor 2. Kind of series: Binding affinity to N-terminal peptide SR12 of C5aR2 (6 to 32 residues)(unknown origin) assessed as dissociation constant by fluorescence based analysis.
Another series has as its target trypsin (Homo sapiens, UniProt P07477+P07478+P35030). Kind of series: Induction of trypsin (unknown origin)-mediated proteolysis of compound incubated for 4 hrs by LC-HRMS spectroscopy. As to conditions: trypsin (enzyme incubation), read-out: Activity. In kind it is protein assay.
Series [10] deals with T1, Complement C5. Briefly: Binding affinity to C5a (unknown origin) assessed as tryptophan lifetime by TCSPC analysis (reference value: 2.70 +/- 0.03 nanoseconds). As to conditions: filed as modulator.

T3 sequence (Q9P296 whole entry, the tested form may be a part): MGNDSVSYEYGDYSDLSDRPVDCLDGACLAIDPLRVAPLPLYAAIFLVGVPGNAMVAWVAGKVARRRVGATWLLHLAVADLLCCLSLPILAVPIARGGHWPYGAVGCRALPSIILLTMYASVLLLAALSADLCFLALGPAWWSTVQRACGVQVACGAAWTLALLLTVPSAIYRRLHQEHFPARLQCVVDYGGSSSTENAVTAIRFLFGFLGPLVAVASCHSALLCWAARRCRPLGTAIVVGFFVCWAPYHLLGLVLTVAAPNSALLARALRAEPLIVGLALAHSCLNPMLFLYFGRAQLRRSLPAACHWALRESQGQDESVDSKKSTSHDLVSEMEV

As to `CC[C@H](C)[C@H](NC(=O)[C@H](CO)NC(=O)[C@@H](CCC(=O)O)NC(=O)[C@H](CCCNC(=N)N)NC(=O)[C@@H]1CCCN1C(=O)[C@@H](Cc1ccccc1)NC(=O)[C@H](CC(=O)O)NC(=O)[C@@H](CCCNC(=N)N)NC(=O)[C@H](CCCCN)NC(=O)[C@H](Cc1c[nH]c2ccccc12)NC(=O)[C@H](CCSC)NC(=O)[C@@H](CCC(=O)O)NC(=O)[C@H](CC(=O)O)NC(=O)[C@H](CC(C)C)NC(=O)CNC(=O)[C@H]1CCCN1C(=O)[C@H](Cc1ccc(O)cc1)NC(=O)[C@H](CCC(N)=O)NC(=O)[C@@H](CC(=O)O)NC(=O)[C@H](CCCNC(=N)N)NC(=O)[C@@H](NC(=O)[C@H](Cc1cnc[nH]1)NC(=O)[C@@H](CCC(=O)O)NC(=O)[C@H](CC(N)=O)NC(=O)[C@H](CC(C)C)NC(C)=O)C(C)C)C(=O)N[C@@H](CCCNC(=N)N)C(=O)N[C@H](C(=O)N[C@@H](Cc1cnc[nH]1)C(=O)N[C@H](C(=O)N[C@@H](C)C(N)=O)[C@@H](C)O)[C@@H](C)O`, the outcome on Complement C5 [1], on Complement C5 [2] and on Complement C5 [3] was Active. In addition, the Kd is 126 nM in [4]; 700 nM on Complement C5 [5]; 105 nM in series [6]; 299 nM in series [7]; 880 nM at Complement C5 [8]; 203 nM in series [9]. Besides, the Activity entry in the series with HeLa, in the series with HEK293 and in the series on Erythrocyte was “Non-Toxic” each time. Moreover, the metabolised at 4 h on trypsin is 0%.

In the case of `CC[C@H](C)[C@H](NC(=O)[C@H](CO)NC(=O)[C@H](CCC(=O)O)NC(=O)[C@H](CCCNC(=N)N)NC(=O)[C@@H]1CCCN1C(=O)[C@H](Cc1ccccc1)NC(=O)[C@H](CC(=O)O)NC(=O)[C@H](CCCNC(=N)N)NC(=O)[C@H](CCCCN)NC(=O)[C@H](Cc1c[nH]c2ccccc12)NC(=O)[C@H](CCSC)NC(=O)[C@H](CCC(=O)O)NC(=O)[C@H](CC(=O)O)NC(=O)[C@H](CC(C)C)NC(=O)CNC(=O)[C@@H]1CCCN1C(=O)[C@H](Cc1ccc(O)cc1)NC(=O)[C@H](CCC(N)=O)NC(=O)[C@H](CC(=O)O)NC(=O)[C@H](CCCNC(=N)N)NC(=O)[C@@H](NC(=O)[C@H](Cc1cnc[nH]1)NC(=O)[C@H](CCC(=O)O)NC(=O)[C@H](CC(N)=O)NC(=O)[C@H](CC(C)C)NC(C)=O)C(C)C)C(=O)N[C@@H](CCCNC(=N)N)C(=O)N[C@H](C(=O)N[C@@H](Cc1cnc[nH]1)C(=O)N[C@H](C(=O)N[C@@H](C)C(N)=O)[C@@H](C)O)[C@@H](C)O`, the outcome at Complement C5 [1], at Complement C5 [2] and at Complement C5 [3] was Active. For the same compound, the Kd in [4] amounted to 126 nM; on Complement C5 [5], 940 nM; in series [6], 105 nM; in series [7], 299 nM; on Complement C5 [8], 820 nM; in [9] it was 203 nM. For the same compound, on Complement C5 [10], the Time is 1.99 nanoseconds. Also, the Activity entry with HeLa, in the series on HEK293 and with Erythrocyte was “Non-Toxic” throughout.

By Kd is commonly meant the free concentration of one partner at which half of the binding sites on the other are occupied at equilibrium, for simple one-to-one binding.
